Experimental data taken from patent US20250154144A1 (CHILDREN'S HOSPITAL MEDICAL CENTER, priority 2021, published 2025).
Read-outs that look alike come from different tables or passages of the source.

What was measured:
[1] = tested on: MOLM14 D835Y cells; test: cells; assay type: cell-based; conditions: 48 hours, Cell Titer Glo, read-out: MOLM14 D835Y IC50
[2] = tested on: MOLM14 F691L cells; test: cells; assay type: cell-based; conditions: read-out: MOLM14 F691L IC50
[3] = target: T1, FLT3 (Homo sapiens, UniProt P36888); test: RBC HotSpot Kinase Assay, FLT3
T1 sequence (P36888 610-943 limits assumed): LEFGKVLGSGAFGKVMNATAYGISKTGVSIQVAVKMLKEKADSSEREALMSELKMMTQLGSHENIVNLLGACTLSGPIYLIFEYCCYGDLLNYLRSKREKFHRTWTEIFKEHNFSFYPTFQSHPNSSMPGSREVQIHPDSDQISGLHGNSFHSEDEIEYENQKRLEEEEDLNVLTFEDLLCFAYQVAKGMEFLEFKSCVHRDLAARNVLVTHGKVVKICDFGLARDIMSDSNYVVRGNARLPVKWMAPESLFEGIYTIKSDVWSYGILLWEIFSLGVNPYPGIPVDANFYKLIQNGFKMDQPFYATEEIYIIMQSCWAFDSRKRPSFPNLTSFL

[4] = target: IRAK1 (Homo sapiens, UniProt P51617); test: RBC HotSpot Kinase Assay, IRAK1
[5] = target: T2, IRAK4 (Homo sapiens, UniProt Q9NWZ3); test: RBC HotSpot Kinase Assay, IRAK4
T2 sequence (Q9NWZ3 1-460): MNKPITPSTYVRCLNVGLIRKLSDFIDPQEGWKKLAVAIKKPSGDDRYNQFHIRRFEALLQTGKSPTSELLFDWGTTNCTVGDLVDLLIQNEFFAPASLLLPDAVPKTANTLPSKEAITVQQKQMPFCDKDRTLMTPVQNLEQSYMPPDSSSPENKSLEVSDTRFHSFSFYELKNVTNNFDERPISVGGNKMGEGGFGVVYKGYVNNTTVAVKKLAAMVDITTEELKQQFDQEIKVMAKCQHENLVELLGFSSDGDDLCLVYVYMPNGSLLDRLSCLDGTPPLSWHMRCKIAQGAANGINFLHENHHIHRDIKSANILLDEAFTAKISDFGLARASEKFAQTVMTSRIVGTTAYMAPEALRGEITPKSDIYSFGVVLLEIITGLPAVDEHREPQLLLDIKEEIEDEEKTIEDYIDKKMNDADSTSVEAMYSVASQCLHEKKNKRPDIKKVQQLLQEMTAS

[6] = tested on: THP1 cells; test: Combination drug screening, Cell Titer Glo, 10 × 10 matrix, THP1 cells; assay type: cell-based; conditions: THP1 cells; for Excess HSA Score: 10 × 10
[7] = tested on: MOLM14(D835Y) cells; assay type: cell-based; conditions: MOLM14(D835Y) cells; for Excess HSA Score: 10 × 10
[8] = combination with (+)-BAY-1251152
[9] = combination with Eprenetapopt/APR-246
[10] = combination with Venetoclax (ABT-199)

Chain of IRAK1 (P51617 whole entry): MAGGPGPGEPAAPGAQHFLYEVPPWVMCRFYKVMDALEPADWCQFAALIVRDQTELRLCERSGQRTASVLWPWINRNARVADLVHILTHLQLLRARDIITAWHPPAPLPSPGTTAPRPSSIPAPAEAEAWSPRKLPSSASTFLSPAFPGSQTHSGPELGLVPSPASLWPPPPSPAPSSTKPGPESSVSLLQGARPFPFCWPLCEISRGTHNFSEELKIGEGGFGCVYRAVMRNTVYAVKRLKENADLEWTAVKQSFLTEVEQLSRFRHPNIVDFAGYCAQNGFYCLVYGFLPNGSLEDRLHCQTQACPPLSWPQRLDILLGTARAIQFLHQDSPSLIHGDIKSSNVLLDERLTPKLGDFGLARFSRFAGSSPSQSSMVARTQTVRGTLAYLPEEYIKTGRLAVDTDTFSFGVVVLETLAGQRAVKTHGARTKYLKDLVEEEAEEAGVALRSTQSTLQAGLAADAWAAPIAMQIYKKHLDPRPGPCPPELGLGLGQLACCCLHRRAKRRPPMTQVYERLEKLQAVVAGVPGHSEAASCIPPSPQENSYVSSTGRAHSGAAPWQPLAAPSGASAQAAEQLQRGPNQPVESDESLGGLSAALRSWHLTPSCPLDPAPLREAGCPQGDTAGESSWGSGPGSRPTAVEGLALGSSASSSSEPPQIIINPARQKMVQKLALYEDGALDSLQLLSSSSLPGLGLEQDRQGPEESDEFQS

Compound: FC(F)COc1ccn2c(-c3cncc(N[C@H]4CNC[C@@H]4F)n3)cnc2c1 [Compound 7]
- IC50 ([1]; Homo sapiens, MOLM-14, 48 h): 69 nM
- IC50 ([2]; Homo sapiens, MOLM-14, 48 h, 48 hours, Cell Titer Glo): 217 nM
- IC50 ([3]; FLT3 IC50): < 0.5 nM
- IC50 ([4]; IRAK1 IC50): 85 nM
- IC50 ([5]; IRAK4 IC50): 4 nM

Compound: CC(O)(c1cn2c(-c3cncc(N[C@H]4CNCC[C@@H]4F)n3)cnc2cn1)C(F)(F)F (single isomer, unassigned) [Compound 78]
- IC50 [1]: 193 nM
- IC50 ([2]; 48 hours, Cell Titer Glo): 386 nM
- IC50 ([3]; read-out: FLT3 IC50): < 0.5 nM
- IC50 ([4]; IRAK1 IC50): 7 nM
- IC50 ([5]; IRAK4 IC50): < 0.5 nM

Compound: COc1cc2ncc(-c3ccnc(N[C@@H]4CCCNC4)n3)n2cc1C(C)(O)C(F)(F)F (single isomer, unassigned) [Compound 59]
- Excess HSA Score [6, 8]: −945.9
- Excess HSA Score ([6]; combination with AMG-232): 249.9
- Excess HSA Score ([6]; combination with AZD-5363): −164.6
- Excess HSA Score [6, 9]: 269.2
- Excess HSA Score ([6]; combination with Ivosidenib): 205.2
- Excess HSA Score ([6]; combination with Lenalidomide): 30.374
- Excess HSA Score ([6]; combination with Palbociclib): −620.1
- Excess HSA Score ([6]; combination with Prednisolone): 486.6
- Excess HSA Score ([6]; combination with SNDX-5613): 68.13
- Excess HSA Score ([6]; combination with TNO-155): 213.8
- Excess HSA Score ([6]; combination with Trametinib): −374.5
- Excess HSA Score ([6]; combination with Ulixertinib): 164.2711
- Excess HSA Score [6, 10]: −1422
- Comments ([6]; combination with Lenalidomide): Antagonistic
- Comments [6, 10]: Synergistic
- Excess HSA Score [7, 8]: −448.2
- Excess HSA Score ([7]; combination with AMG-232): −416.2
- Excess HSA Score ([7]; combination with AZD-5363): −316.4244
- Excess HSA Score [7, 9]: −22.76
- Excess HSA Score ([7]; combination with Ivosidenib): 107.6
- Excess HSA Score ([7]; combination with Lenalidomide): 395.8
- Excess HSA Score ([7]; combination with Palbociclib): −185.3
- Excess HSA Score ([7]; combination with Prednisolone): 66.52
- Excess HSA Score ([7]; combination with SNDX-5613): 130.9
- Excess HSA Score ([7]; combination with TNO-155): −722.6
- Excess HSA Score ([7]; combination with Trametinib): −383
- Excess HSA Score ([7]; combination with Ulixertinib): −473
- Excess HSA Score [7, 10]: −1215
- Comments ([7]; combination with Prednisolone): Antagonistic
- Comments [7, 10]: Synergistic
- IC50 ([3]; read-out: FLT3 IC50): < 0.5 nM
- IC50 ([4]; read-out: IRAK1 IC50): < 0.5 nM
- IC50 ([5]; read-out: IRAK4 IC50): < 0.5 nM

Compound: COc1ccn2c(-c3ccnc(N[C@H]4CNCC[C@@H]4F)n3)cnc2c1 [Compound 30, N-((3S,4S)-4-fluoropiperidin-3-yl)-4-(7-methoxyimidazo[1,2-a]pyridin-3-yl)pyrimidin-2-amine]
- IC50 ([2]; Homo sapiens, MOLM-14, 48 h): 61 nM
- Excess HSA Score [6, 8]: −655.1
- Excess HSA Score ([6]; combination with AMG-232): −76.43
- Excess HSA Score ([6]; combination with AZD-5363): −13.97
- Excess HSA Score [6, 9]: 389.5
- Excess HSA Score ([6]; combination with Ivosidenib): 59.9
- Excess HSA Score ([6]; combination with Lenalidomide): −90.11
- Excess HSA Score ([6]; combination with Palbociclib): −678.3
- Excess HSA Score ([6]; combination with Prednisolone): 188.1
- Excess HSA Score ([6]; combination with SNDX-5613): 1.322
- Excess HSA Score ([6]; combination with TNO-155): 591.3
- Excess HSA Score ([6]; combination with Trametinib): −203.6
- Excess HSA Score ([6]; combination with Ulixertinib): −362.3
- Excess HSA Score [6, 10]: −1632
- Comments ([6]; combination with Ivosidenib): Antagonistic
- Comments ([6]; combination with SNDX-5613): Additive
- Comments [6, 10]: Synergistic
- Excess HSA Score [7, 8]: −230
- Excess HSA Score ([7]; combination with AMG-232): −524.3
- Excess HSA Score ([7]; combination with AZD-5363): −738.1
- Excess HSA Score [7, 9]: −284.6
- Excess HSA Score ([7]; combination with Ivosidenib): −74.07
- Excess HSA Score ([7]; combination with Lenalidomide): 299.3
- Excess HSA Score ([7]; combination with Palbociclib): −448.3
- Excess HSA Score ([7]; combination with Prednisolone): 3.447
- Excess HSA Score ([7]; combination with SNDX-5613): −303.5
- Excess HSA Score ([7]; combination with TNO-155): −922.2
- Excess HSA Score ([7]; combination with Trametinib): −313.7
- Excess HSA Score ([7]; combination with Ulixertinib): 14.83
- Excess HSA Score [7, 10]: −1291
- Comments ([7]; combination with Prednisolone): Antagonistic
- Comments [7, 10]: Synergistic

Compound: CC(C)(O)c1ccc2ncc(-c3cncc(N[C@H]4CNC[C@@H]4F)n3)n2c1 [Compound 16, 2-(3-(6-(((3S,4S)-4-fluoropyrrolidin-3-yl)amino)pyrazin-2-yl)imidazo[1,2-a]pyridin-6-yl)propan-2-ol]
- IC50 ([3]; FLT3 IC50): 5 nM
- IC50 ([4]; IRAK1 IC50): 237 nM
- IC50 ([5]; IRAK4 IC50): 13 nM

Compound: COc1cc2ncc(-c3cncc(N[C@H]4CNCC[C@@H]4F)n3)n2nc1C(C)(O)C(F)(F)F (single isomer, unassigned) [Compound 80]
- IC50 ([3]; FLT3 IC50): < 0.5 nM
- IC50 ([4]; IRAK1 IC50): 1120 nM
- IC50 ([5]; IRAK4 IC50): 406 nM

Compound: COc1cc2ncc(-c3cncc(N[C@H]4CNC[C@@H]4F)n3)n2nc1C(C)(O)C(F)(F)F (single isomer, unassigned) [Compound 81]
- IC50 ([3]; FLT3 IC50): 8 nM
- IC50 ([4]; IRAK1 IC50): 7900 nM
- IC50 ([5]; IRAK4 IC50): 2540 nM

Compound: CC(O)(c1cn2c(-c3ccnc(N[C@H]4CNCC[C@@H]4F)n3)cnc2cn1)C(F)(F)F (single isomer, unassigned) [Compound 58]
- IC50 ([3]; FLT3 IC50): < 0.5 nM
- IC50 ([4]; IRAK1 IC50): 0.6 nM
- IC50 ([5]; IRAK4 IC50): < 0.5 nM
